Experimental data from patent US20150284375A1 (AJINOMOTO CO., INC., priority 2012, published 2015).

Target: T1, human TRPA1 (Homo sapiens, UniProt O75762)
T1 construct: expressed in transfected cells; host or cells: Human embryonic kidney-derived 293T cells, transiently transfected with the pcDNA3.1/zeo(+) human TRPA1 plasmid
Assay: Measurement of TRPA1 antagonist activity (intracellular calcium increase, FLIPR, allylisothiocyanate stimulation)
Assay type: cell-based
Details: allylisothiocyanate 20 μM stimulation, FLIPR calcium assay; read-out: antagonism hTRPA1
How it was run: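 IC50 derives from a sigmoid fit of inhibition of the 5-min FLIPR fluorescence change evoked by 20 μM allylisothiocyanate, normalized between agonist and buffer responses. Test substance, diluted in HBSS/20 mM HEPES pH 7.2 plus 0.1% BSA, was applied 10 min beforehand at room temperature to Calcium4-loaded 293T cells transiently expressing human TRPA1.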

T1 sequence (O75762 whole entry): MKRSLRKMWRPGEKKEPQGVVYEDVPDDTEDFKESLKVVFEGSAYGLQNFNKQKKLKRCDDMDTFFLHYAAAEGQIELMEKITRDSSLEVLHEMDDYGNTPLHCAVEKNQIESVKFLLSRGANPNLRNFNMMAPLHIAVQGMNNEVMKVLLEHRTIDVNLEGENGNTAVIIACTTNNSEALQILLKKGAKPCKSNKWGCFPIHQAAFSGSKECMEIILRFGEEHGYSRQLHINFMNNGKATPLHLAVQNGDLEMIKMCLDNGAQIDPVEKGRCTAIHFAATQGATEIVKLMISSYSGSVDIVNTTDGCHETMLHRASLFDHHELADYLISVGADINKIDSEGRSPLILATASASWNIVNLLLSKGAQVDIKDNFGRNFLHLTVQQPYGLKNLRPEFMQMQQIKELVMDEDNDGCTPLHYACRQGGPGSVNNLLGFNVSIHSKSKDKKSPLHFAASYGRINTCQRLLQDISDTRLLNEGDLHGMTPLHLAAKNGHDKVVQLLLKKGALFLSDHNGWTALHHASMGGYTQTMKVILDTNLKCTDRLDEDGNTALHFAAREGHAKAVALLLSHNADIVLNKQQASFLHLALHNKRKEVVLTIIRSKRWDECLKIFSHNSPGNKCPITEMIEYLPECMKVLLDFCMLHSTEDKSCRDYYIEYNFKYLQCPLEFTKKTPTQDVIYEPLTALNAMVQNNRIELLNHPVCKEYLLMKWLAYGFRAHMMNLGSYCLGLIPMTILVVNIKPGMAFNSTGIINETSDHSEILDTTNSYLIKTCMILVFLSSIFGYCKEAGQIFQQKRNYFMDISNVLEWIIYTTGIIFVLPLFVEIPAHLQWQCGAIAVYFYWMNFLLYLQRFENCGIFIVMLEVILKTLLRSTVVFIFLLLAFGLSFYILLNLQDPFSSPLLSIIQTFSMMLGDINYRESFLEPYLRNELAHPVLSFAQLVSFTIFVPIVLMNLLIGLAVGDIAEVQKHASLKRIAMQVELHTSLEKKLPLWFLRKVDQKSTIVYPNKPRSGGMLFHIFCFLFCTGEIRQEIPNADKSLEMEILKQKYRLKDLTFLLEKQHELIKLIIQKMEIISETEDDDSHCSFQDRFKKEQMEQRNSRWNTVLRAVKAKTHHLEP

IC50 [nM]	Structure (SMILES)
27	O=C(NCc1cccc(OCc2ccc(C(F)(F)F)cc2)c1)[C@@H]1CCCN1S(=O)(=O)c1ccc(F)cc1 [Example 163, (2S)-1-(4-fluorophenyl)sulfonyl-N-[[3-[[4-(trifluoromethyl)phenyl]methoxy]phenyl]methyl]pyrrolidine-2-carboxamide]
450	O=C(NCc1cccc(OCc2ccc(C(F)(F)F)cc2)c1)[C@@H]1C[C@H](F)CN1S(=O)(=O)c1ccc(F)cc1 [Example 164, (2S,4S)-4-fluoro-1-(4-fluorophenyl)sulfonyl-N-[[3-[[4-(trifluoromethyl)phenyl]methoxy]phenyl]methyl]pyrrolidine-2-carboxamide]
150	O=C(NCc1cccc(OCc2ccc(C(F)(F)F)cc2)c1)[C@@H]1C[C@@H](F)CN1S(=O)(=O)c1ccc(F)cc1 [Example 165, (2S,4R)-4-fluoro-1-(4-fluorophenyl)sulfonyl-N-[[3-[[4-(trifluoromethyl)phenyl]methoxy]phenyl]methyl]pyrrolidine-2-carboxamide]
110	O=C(NCc1cccc(OCc2ccc(C(F)(F)F)cc2)c1)[C@@H]1CC(F)(F)CN1S(=O)(=O)c1ccc(F)cc1 [Example 166, (2S)-4,4-difluoro-1-(4-fluorophenyl)sulfonyl-N-[[3-[[4-(trifluoromethyl)phenyl]methoxy]phenyl]methyl]pyrrolidine-2-carboxamide]
240	O=C(NCc1cccc(OCc2ccc(C(F)(F)F)cc2)c1)[C@@H]1[C@@H](O)CCN1S(=O)(=O)c1ccc(F)cc1 [Example 167, (2S,3S)-1-(4-fluorophenyl)sulfonyl-3-hydroxy-N-[[3-[[4-(trifluoromethyl)phenyl]methoxy]phenyl]methyl]pyrrolidine-2-carboxamide]
2200	O=C(NCc1cccc(OCc2ccc(C(F)(F)F)cc2)c1)[C@@H]1[C@H](O)CCN1S(=O)(=O)c1ccc(F)cc1 [Example 168, (2S,3R)-1-(4-fluorophenyl)sulfonyl-3-hydroxy-N-[[3-[[4-(trifluoromethyl)phenyl]methoxy]phenyl]methyl]pyrrolidine-2-carboxamide]
290	O=C(NCc1cccc(OCc2ccc(C(F)(F)F)cc2)c1)[C@@H]1C[C@@H](O)CN1S(=O)(=O)c1ccc(F)cc1 [Example 169, (2S,4R)-1-(4-fluorophenyl)sulfonyl-4-hydroxy-N-[[3-[[4-(trifluoromethyl)phenyl]methoxy]phenyl]methyl]pyrrolidine-2-carboxamide]
1700	O=C(NCc1cccc(OCc2ccc(C(F)(F)F)cc2)c1)[C@@H]1C[C@H](O)CN1S(=O)(=O)c1ccc(F)cc1 [Example 170, (2S,4S)-1-(4-fluorophenyl)sulfonyl-4-hydroxy-N-[[3-[[4-(trifluoromethyl)phenyl]methoxy]phenyl]methyl]pyrrolidine-2-carboxamide]
1900	O=C(NCc1cccc(OCc2ccc(C(F)(F)F)cc2)c1)[C@@H]1[C@H]2C[C@H]2CN1S(=O)(=O)c1ccc(F)cc1 [Example 171, (1R,4S,5S)-3-(4-fluorophenyl)sulfonyl-N-[[3-[[4-(trifluoromethyl)phenyl]methoxy]phenyl]methyl]-3-azabicyclo[3.1.0]hexane-4-carboxamide]
1200	O=C(NCc1cccc(OCc2ccc(C(F)(F)F)cc2)c1)[C@@H]1[C@@H]2C[C@@H]2CN1S(=O)(=O)c1ccc(F)cc1 [Example 172, (1S,4S,5R)-3-(4-fluorophenyl)sulfonyl-N-[[3-[[4-(trifluoromethyl)phenyl]methoxy]phenyl]methyl]-3-azabicyclo[3.1.0]hexane-4-carboxamide]
99	O=C(NCc1cccc(OCc2ccc(C(F)(F)F)cc2)c1)[C@@H]1C[C@H]2C[C@H]2N1S(=O)(=O)c1ccc(F)cc1 [Example 173, (1R,3S,5R)-4-(4-fluorophenyl)sulfonyl-N-[[3-[[4-(trifluoromethyl)phenyl]methoxy]phenyl]methyl]-4-azabicyclo[3.1.0]hexane-3-carboxamide]
49	O=C(NCc1cccc(OCc2ccc(C(F)(F)F)cc2)c1)[C@@H]1C[C@@H]2C[C@@H]2N1S(=O)(=O)c1ccc(F)cc1 [Example 174, (1S,3S,5S)-4-(4-fluorophenyl)sulfonyl-N-[[3-[[4-(trifluoromethyl)phenyl]methoxy]phenyl]methyl]-4-azabicyclo[3.1.0]hexane-3-carboxamide]
780	O=C(NCc1cccc(OCc2ccc(C(F)(F)F)cc2)c1)[C@@H]1CCCCN1S(=O)(=O)c1ccc(F)cc1 [Example 175, (2S)-1-(4-fluorophenyl)sulfonyl-N-[[3-[[4-(trifluoromethyl)phenyl]methoxy]phenyl]methyl]piperidine-2-carboxamide]
36	O=C(NCc1cccc(OCc2ccc(C(F)(F)F)cc2)c1)[C@@H]1CCCN1S(=O)(=O)c1ccco1 [Example 176, (2S)-1-(2-furylsulfonyl)-N-[[3-[[4-(trifluoromethyl)phenyl]methoxy]phenyl]methyl]pyrrolidine-2-carboxamide]
27	O=C(NCc1cccc(OCc2ccc(C(F)(F)F)cc2)c1)[C@@H]1CCCN1S(=O)(=O)c1ccoc1 [Example 177, (2S)-1-(3-furylsulfonyl)-N-[[3-[[4-(trifluoromethyl)phenyl]methoxy]phenyl]methyl]pyrrolidine-2-carboxamide]
8.6	O=C(NCc1cccc(OCc2ccc(C(F)(F)F)cc2)c1)[C@@H]1CCCN1S(=O)(=O)c1ccsc1 [Example 178, (2S)-1-(3-thienylsulfonyl)-N-[[3-[[4-(trifluoromethyl)phenyl]methoxy]phenyl]methyl]pyrrolidine-2-carboxamide]
600	O=C(NCc1cccc(OCc2ccc(C(F)(F)F)cc2)c1)[C@@H]1[C@@H](O)CCN1S(=O)(=O)c1ccco1 [Example 179, (2S,3S)-1-(2-furylsulfonyl)-3-hydroxy-N-[[3-[[4-(trifluoromethyl)phenyl]methoxy]phenyl]methyl]pyrrolidine-2-carboxamide]
1300	O=C(NCc1cccc(OCc2ccc(C(F)(F)F)cc2)c1)[C@@H]1C[C@@H](O)CN1S(=O)(=O)c1ccco1 [Example 180, (2S,4R)-1-(2-furylsulfonyl)-4-hydroxy-N-[[3-[[4-(trifluoromethyl)phenyl]methoxy]phenyl]methyl]pyrrolidine-2-carboxamide]
100	O=C(NCc1cccc(OCc2ccccc2)c1)[C@@H]1CCCN1S(=O)(=O)c1ccco1 [Example 181, (2S)-N-[(3-benzyloxyphenyl)methyl]-1-(2-furylsulfonyl)pyrrolidine-2-carboxamide]
83	O=C(NCc1cccc(OCc2ccccc2)c1)[C@@H]1C=CCN1S(=O)(=O)c1ccco1 [Example 182, (2S)-N-[(3-benzyloxyphenyl)methyl]-1-(2-furylsulfonyl)-2,5-dihydropyrrole-2-carboxamide]
3300	O=C(NCc1cccc(Oc2ccc(C(F)(F)F)cc2)c1)[C@@H]1CCCN1S(=O)(=O)c1nccs1 [Example 183, (2S)-1-thiazol-2-ylsulfonyl-N-[[3-[4-(trifluoromethyl)phenoxy]phenyl]methyl]pyrrolidine-2-carboxamide]
980	O=C(NCc1cccc(OCc2ccc(C(F)(F)F)cc2)c1)[C@@H]1CCCN1S(=O)(=O)c1nccs1 [Example 184, (2S)-1-thiazol-2-ylsulfonyl-N-[[3-[[4-(trifluoromethyl)phenyl]methoxy]phenyl]methyl]pyrrolidine-2-carboxamide]
240	N#Cc1ccc(S(=O)(=O)N2CCC[C@H]2C(=O)NCc2cccc(OCc3ccc(C(F)(F)F)cc3)c2)cc1 [Example 185, (2S)-1-(4-cyanophenyl)sulfonyl-N-[[3-[[4-(trifluoromethyl)phenyl]methoxy]phenyl]methyl]pyrrolidine-2-carboxamide]
71	O=C(NCc1cccc(Oc2ccc(C(F)(F)F)cc2)c1)[C@@H]1CCCN1S(=O)(=O)c1cccc(F)c1 [Example 186, (2S)-1-(3-fluorophenyl)sulfonyl-N-[[3-[4-(trifluoromethyl)phenoxy]phenyl]methyl]pyrrolidine-2-carboxamide]
60	O=C(NCc1cccc(Oc2ccc(C(F)(F)F)cc2)c1)[C@@H]1CCCN1S(=O)(=O)c1ccc(F)c(F)c1 [Example 187, (2S)-1-(3,4-difluorophenyl)sulfonyl-N-[[3-[4-(trifluoromethyl)phenoxy]phenyl]methyl]pyrrolidine-2-carboxamide]
100	O=C(NCc1cccc(Oc2ccc(C(F)(F)F)cc2)c1)[C@@H]1CCCN1S(=O)(=O)c1cc(F)cc(F)c1 [Example 188, (2S)-1-(3,5-difluorophenyl)sulfonyl-N-[[3-[4-(trifluoromethyl)phenoxy]phenyl]methyl]pyrrolidine-2-carboxamide]
100	O=C(NCc1cccc(Oc2ccc(C(F)(F)F)cc2)c1)[C@@H]1CCCN1S(=O)(=O)c1ccco1 [Example 189, (2S)-1-(2-furylsulfonyl)-N-[[3-[4-(trifluoromethyl)phenoxy]phenyl]methyl]pyrrolidine-2-carboxamide]
35	O=C(NCc1cccc(Oc2ccc(C(F)(F)F)cc2)c1)[C@@H]1CCCN1S(=O)(=O)c1ccsc1 [Example 190, (2S)-1-(3-thienylsulfonyl)-N-[[3-[4-(trifluoromethyl)phenoxy]phenyl]methyl]pyrrolidine-2-carboxamide]
66	O=C(NCc1cccc(OCc2ccc(C(F)(F)F)cc2)c1)[C@@H]1CCCN1S(=O)(=O)c1ccccc1 [Example 191, (2S)-1-(benzenesulfonyl)-N-[[3-[[4-(trifluoromethyl)phenyl]methoxy]phenyl]methyl]pyrrolidine-2-carboxamide]
49	O=C(NCc1cccc(OCc2ccc(C(F)(F)F)cc2)c1)[C@@H]1CCCN1S(=O)(=O)c1cccc(F)c1 [Example 192, (2S)-1-(3-fluorophenyl)sulfonyl-N-[[3-[[4-(trifluoromethyl)phenyl]methoxy]phenyl]methyl]pyrrolidine-2-carboxamide]
